Measurements as given in ChEMBL document CHEMBL5625204, “Synthesis and pharmacodynamic evaluation of naphthalene derivatives against influenza A virus in vitro and in vivo” (Eur J Med Chem, 2023).
Active and inactive are the calls of the source. No cut-off for these calls is given here.

Tests used:
[1] = Cytotoxicity against dog MDCK cells assessed as reduction in cell viability incubated for 72 hrs by MTT assay; assay type: toxicity, cell-based, Canis lupus familiaris
[2] = test system: Influenza A virus; test: Antiviral activity against Influenza A virus H1N1 (A/Weiss/43) infected in MDCK cells assessed as reduction of viral replication at 0.625 to 100 uM incubated for 72 hrs by TCID50 method; assay type: functional, organism-based; conditions: dose 0.625-100 µM
[3] = Selectivity index, ratio of CC50 for dog MDCK cells to EC50 for antiviral activity against Influenza A virus H1N1 (A/Weiss/43) infected in MDCK cells treated for 72 hrs after viral adsorption; assay type: toxicity, cell-based; conditions: read-out: Ratio CC50/EC50
[4] = test system: Influenza A virus; test: Antiviral activity against Influenza A virus H1N1 (A/Weiss/43) infected in MDCK cells assessed as reduction of viral replication treated for 72 hrs after viral adsorption by TCID50 method; assay type: functional, organism-based
[5] = test system: Influenza A virus; test: Antiviral activity against Influenza A virus H1N1 (A/Weiss/43)-infected in BALB/c mouse assessed as reduction in pulmonary inflammation at 50 mg/kg/day administered intranasally for 6 days starting from 3 hrs post-viral infection by Hematoxylin-Eosin staining based analysis; assay type: functional, organism-based; conditions: route nas, time 6.0 day
[6] = test system: Influenza A virus; test: Antiviral activity against Influenza A virus H1N1 (A/Weiss/43)-infected in BALB/c mouse assessed as reduction in lung index at 50 mg/kg/day administered intranasally for 6 days starting from 3 hrs post-viral infection; assay type: functional; conditions: 144 h, route nas, time 6 day
[7] = test system: Influenza A virus; test: Antiviral activity against Influenza A virus H1N1 infected in dog MDCK cells assessed as decrease in apoptosis by measuring proportion of late apoptotic cells at 50 uM measured after 72 hrs by AnnexinV-FITC/PI staining based flow cytometry (reference value: 10.3%); assay type: functional; design: scale not given: the % may be the effect or the level left
[8] = test system: Influenza A virus; test: Antiviral activity against Influenza A virus H1N1 (A/Weiss/43)-infected in dog MDCK cells assessed as reduction in oxidative stress by measuring proportion of normal cells at 50 uM treated at 2 hrs post-infection and measured after 36 hrs by DCFH-DA staining based flow cytometry (reference value: 69.4%); assay type: functional; design: scale not given: the % may be the effect or the level left
[9] = Selectivity index, ratio of CC50 for dog MDCK cells to EC50 for antiviral activity against Influenza A virus H1N1 (A/Virginia/ATCC2/2009) infected in MDCK cells; assay type: toxicity, cell-based; conditions: read-out: Ratio CC50/EC50
[10] = test system: Influenza A virus; test: Antiviral activity against Influenza A virus H1N1 (A/Weiss/43)-infected in dog MDCK cells assessed as reduction in oxidative stress by measuring proportion of cells with excessive ROS accumulation at 50 uM treated at 2 hrs post-infection and measured after 36 hrs by DCFH-DA staining based flow cytometry (reference value: 30.6%); assay type: functional; design: scale not given: the % may be the effect or the level left
[11] = test system: Influenza A virus; test: Antiviral activity against Influenza A virus H1N1 (A/Virginia/ATCC2/2009) infected in MDCK cells assessed as reduction of viral replication incubated for 72 hrs by TCID50 method; assay type: functional, organism-based
[12] = test system: Influenza A virus; test: Antiviral activity against Influenza A virus H3N2 (A/California/2004) infected in MDCK cells assessed as reduction of viral replication incubated for 72 hrs by TCID50 method; assay type: functional, organism-based
[13] = test system: Influenza A virus; test: Antiviral activity against Influenza A virus H1N1 infected in dog MDCK cells assessed as decrease in apoptosis by measuring proportion of early apoptotic cells at 50 uM measured after 72 hrs by AnnexinV-FITC/PI staining based flow cytometry (reference value: 24.3%); assay type: functional; design: scale not given: the % may be the effect or the level left
[14] = test system: Influenza A virus; test: Antiviral activity against Influenza A virus H1N1 infected in dog MDCK cells assessed as decrease in apoptosis by measuring proportion of viable cells at 50 uM measured after 72 hrs by AnnexinV-FITC/PI staining based flow cytometry (reference value: 62.9%); assay type: functional
[15] = Selectivity index, ratio of CC50 for dog MDCK cells to EC50 for antiviral activity against Influenza A virus H3N2 (A/California/2004) infected in MDCK cells; assay type: toxicity, cell-based; conditions: read-out: Ratio CC50/EC50
[16] = test system: Influenza A virus; test: Antiviral activity against Influenza A virus H1N1 infected in dog MDCK cells assessed as decrease in apoptosis by measuring proportion of necrotic cells at 50 uM measured after 72 hrs by AnnexinV-FITC/PI staining based flow cytometry (reference value: 2.47%); assay type: functional; design: scale not given: the % may be the effect or the level left
[17] = test system: Influenza A virus; test: Inhibition of Influenza A virus Neuraminidase at 100 to 300 uM pretreated with enzyme for 5 mins followed by fluorogenic substrate addition and measured for 1 hr by fluorescence based analysis; conditions: dose 100-300 µM, time 65.0 min

## O=S(=O)(c1ccc(Cl)cc1)N(Cc1ccccc1)c1cccc2ccccc12
[1]
  CC50 at 72 h: > 800 µM
[2]
  Activity: inactive

## CS(=O)(=O)Nc1cc2ccccc2c2ccccc12
[1]
  CC50 at 72 h: 73.4 µM
[2]
  Activity: inactive

## Cc1ccc(S(=O)(=O)N(c2ccccc2)c2cc3ccccc3c3ccccc23)cc1
[1]
  CC50 at 72 h: > 800 µM
[2]
  Activity: inactive

## CS(=O)(=O)N(Cc1ccccc1)c1cc2ccccc2c2ccccc12
[1]
  CC50 at 72 h: > 800 µM
[2]
  Activity: inactive

## Cc1ccc(S(=O)(=O)N(Cc2ccccc2)c2cc3ccccc3c3ccc(-c4ccccc4)cc23)cc1
[1]
  CC50 at 72 h: > 800 µM
[2]
  Activity: inactive

## CS(=O)(=O)N(C1=CCCc2ccccc21)c1ccccc1
[1]
  CC50 at 72 h: 345 µM
[3]
  selectivity ratio at 72 h: 6.78
[4]
  EC50: 50.8 µM

## Cc1ccc(S(=O)(=O)N(Cc2ccccc2)c2cc3ccccc3c3ccc(Cl)cc23)cc1
[1]
  CC50 at 72 h: > 800 µM
[2]
  Activity: inactive

## NC(=O)c1ncn([C@@H]2O[C@H](CO)[C@@H](O)[C@H]2O)n1 [RIBAVIRIN]
[5]
  Activity: Active
[6]
  inhibition in vivo at 50 mg/kg/day: 40%
[7]
  Activity: 2.43%
[8]
  Activity: 92.5%
[9]
  selectivity ratio: 38.3
[1]
  CC50 at 72 h: 707 µM
[10]
  Activity: 7.48%
[11]
  EC50: 18.5 µM
[3]
  selectivity ratio at 72 h: 54.4
[12]
  EC50: 24.8 µM
[13]
  Activity: 2.76%
[14]
  Activity: 93.2%
[15]
  selectivity ratio: 28.5
[16]
  Activity: 1.56%
[4]
  EC50: 13 µM

## O=[N+]([O-])c1ccc(S(=O)(=O)N(Cc2ccccc2)C2=CCCc3ccccc32)cc1
[1]
  CC50 at 72 h: > 800 µM
[2]
  Activity: inactive

## CC(=O)c1ccc2c(c1)c(N(Cc1ccccc1)S(=O)(=O)c1ccc(C)cc1)cc1ccccc12
[1]
  CC50 at 72 h: 382 µM
[2]
  Activity: inactive

## COC(=O)c1ccc2c(c1)c(N(Cc1ccccc1)S(=O)(=O)c1ccc(C)cc1)cc1ccccc12
[1]
  CC50 at 72 h: 3670 µM
[2]
  Activity: inactive

## O=C1OCCN1c1cccc2ccccc12
[1]
  CC50 at 72 h: > 800 µM
[2]
  Activity: inactive

## C=CCN(C1=CCCc2ccccc21)S(=O)(=O)c1ccc(C)cc1
[1]
  CC50 at 72 h: 127 µM
[2]
  Activity: inactive

## C=CCN(c1cc2ccccc2c2ccccc12)S(=O)(=O)c1ccc(C)cc1
[1]
  CC50 at 72 h: 61.2 µM
[2]
  Activity: inactive

## Cc1ccc(S(=O)(=O)N(Cc2ccccc2)c2cc3ccccc3c3ccccc23)cc1
[1]
  CC50 at 72 h: > 800 µM
[2]
  Activity: inactive

## COc1ccc2c(c1)c(N(Cc1ccccc1)S(=O)(=O)c1ccc(C)cc1)cc1ccccc12
[1]
  CC50 at 72 h: > 800 µM
[3]
  selectivity ratio at 72 h: > 36.8
[4]
  EC50: 21.8 µM

## Cc1ccc(S(=O)(=O)N(Cc2ccccc2)c2cc3ccccc3c3cc(Cl)ccc23)cc1
[1]
  CC50 at 72 h: 2330 µM
[2]
  Activity: inactive

## CCOC(=O)C1=C[C@@H](OC(CC)CC)[C@H](NC(C)=O)[C@@H](N)C1 [OSELTAMIVIR]
[5]
  Activity: Active
[6]
  inhibition in vivo at 50 mg/kg/day: 33.1%
[9]
  selectivity ratio: > 468
[1]
  CC50 at 72 h: > 800 µM
[11]
  EC50: 1.71 µM
[3]
  selectivity ratio at 72 h: > 471
[12]
  EC50: 5.9 µM
[15]
  selectivity ratio: > 136
[17]
  inhibition: Active
[4]
  EC50: 1.7 µM

## Cc1ccc(S(=O)(=O)N(Cc2ccccc2)c2cc3ccc(C)cc3c3ccccc23)cc1
[1]
  CC50 at 72 h: > 800 µM
[2]
  Activity: inactive

## Cc1ccc(S(=O)(=O)N(Cc2ccccc2)C2=CCOc3ccccc32)cc1
[1]
  CC50 at 72 h: 1270 µM
[3]
  selectivity ratio at 72 h: 16.6
[4]
  EC50: 76.6 µM

## Cc1ccc(S(=O)(=O)N(Cc2ccccc2)C2=CCCc3ccccc32)cc1
[1]
  CC50 at 72 h: 1170 µM
[2]
  Activity: inactive

## O=S(=O)(c1ccc(Cl)cc1)N(Cc1ccccc1)c1cc2ccccc2c2ccccc12
[1]
  CC50 at 72 h: > 800 µM
[3]
  selectivity ratio at 72 h: > 26.7
[4]
  EC50: 30.1 µM

## CCCCN(c1cccc2ccccc12)S(=O)(=O)c1ccc(C)cc1
[1]
  CC50 at 72 h: 311 µM
[2]
  Activity: inactive

## COc1ccc(S(=O)(=O)N(Cc2ccccc2)c2cc3ccccc3c3ccccc23)cc1
[1]
  CC50 at 72 h: 288 µM
[2]
  Activity: inactive

## Cc1ccc(S(=O)(=O)N(c2ccccc2)c2cccc3ccccc23)cc1
[1]
  CC50 at 72 h: 1160 µM
[2]
  Activity: inactive

## Cc1ccc(S(=O)(=O)Nc2cc3ccccc3c3ccc(-c4ccccc4)cc23)cc1
[1]
  CC50 at 72 h: > 800 µM
[2]
  Activity: inactive

## O=C1OCCN1c1cc2ccccc2c2ccccc12
[1]
  CC50 at 72 h: 212 µM
[2]
  Activity: inactive

## Cc1ccc(S(=O)(=O)N(C)c2cc3ccccc3c3ccccc23)cc1
[1]
  CC50 at 72 h: 3120 µM
[2]
  Activity: inactive

## Cc1ccc(S(=O)(=O)Nc2cc3ccccc3c3cc(C)ccc23)cc1
[1]
  CC50 at 72 h: 227 µM
[2]
  Activity: inactive

## C=CCN(c1cccc2ccccc12)S(=O)(=O)c1ccc(C)cc1
[1]
  CC50 at 72 h: 620 µM
[2]
  Activity: inactive

## Cc1ccc(S(=O)(=O)N(Cc2ccccc2)c2cc3ccccc3c3cc(C)ccc23)cc1
[1]
  CC50 at 72 h: > 800 µM
[2]
  Activity: inactive

## Cc1ccc(S(=O)(=O)N(Cc2ccccc2)c2cc3ccccc3c3ccc4ccsc4c23)cc1
[1]
  CC50 at 72 h: 1420 µM
[2]
  Activity: inactive

## CCCCN(C1=CCCc2ccccc21)S(=O)(=O)c1ccc(C)cc1
[1]
  CC50 at 72 h: 1170 µM
[3]
  selectivity ratio at 72 h: 29.3
[4]
  EC50: 39.8 µM

## Cc1ccc(S(=O)(=O)N(Cc2ccccc2)c2cccc3ccccc23)cc1
[1]
  CC50 at 72 h: 1370 µM
[2]
  Activity: inactive

## Cc1ccc(S(=O)(=O)N(C2=CCCc3ccccc32)c2ccccc2)cc1
[1]
  CC50 at 72 h: 1210 µM
[2]
  Activity: inactive

## O=C1OCCN1C1=CCCc2ccccc21
[1]
  CC50 at 72 h: 301 µM
[2]
  Activity: inactive

## COc1ccc(S(=O)(=O)N(Cc2ccccc2)c2cccc3ccccc23)cc1
[1]
  CC50 at 72 h: > 800 µM
[2]
  Activity: inactive

## Cc1ccc(S(=O)(=O)N(Cc2ccccc2)c2cc3ccccc3c3ccc(C)cc23)cc1
[1]
  CC50 at 72 h: > 800 µM
[3]
  selectivity ratio at 72 h: > 22
[4]
  EC50: 36.4 µM

## Cc1ccc(S(=O)(=O)N(Cc2ccccc2)c2cc3ccccc3c3ccc4ccccc4c23)cc1
[1]
  CC50 at 72 h: > 800 µM
[2]
  Activity: inactive

## COc1ccc(S(=O)(=O)N(Cc2ccccc2)C2=CCCc3ccccc32)cc1
[1]
  CC50 at 72 h: > 800 µM
[2]
  Activity: inactive

## O=[N+]([O-])c1ccc(S(=O)(=O)N(Cc2ccccc2)c2cc3ccccc3c3ccccc23)cc1
[1]
  CC50 at 72 h: 726 µM
[2]
  Activity: inactive

## Cc1ccc(S(=O)(=O)N(Cc2ccccc2)c2cc3ccccc3c3ccc(F)cc23)cc1
[1]
  CC50 at 72 h: 1040 µM
[2]
  Activity: inactive

## O=S(=O)(c1ccc(Cl)cc1)N(Cc1ccccc1)C1=CCCc2ccccc21
[1]
  CC50 at 72 h: > 800 µM
[2]
  Activity: inactive

## COc1ccc2c(c1)c(NS(=O)(=O)c1ccc(C)cc1)cc1ccccc12
[1]
  CC50 at 72 h: > 800 µM
[3]
  selectivity ratio at 72 h: > 11.5
[4]
  EC50: 69.5 µM

## Cc1ccc(S(=O)(=O)N(C)c2cccc3ccccc23)cc1
[1]
  CC50 at 72 h: > 800 µM
[2]
  Activity: inactive
